For the test, the target named is USP1 (construct USP1 (I-785, GG670, 671AA)/UAF1 (I-677)-Flag) (Homo sapiens (Human), UniProt O94782, G670A/G671A). Kind of test: Ubiquitin-Rhodamine 110 assay for USP1 activity. The settings on record: USP1/UAF1 25 pM, Ub-Rh110 25 nM, 30 min preincubation. It counts as biochemical. In a few lines:
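Two formats with the USP1/UAF1 complex and 25 nM ubiquitin-rhodamine 110 in pH 8.0 Tris buffer with calcium, glutathione and detergent. Single-point screening used 10 µM, 100 pM enzyme and 45 min. Inhibition was set against no-enzyme and DMSO wells.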

This is an account of results in patent US10189841B2, “Purinones as ubiquitin-specific protease 1 inhibitors” (Forma Therapeutics, Inc., priority 2015, dated 2019).

Sequence of USP1 (construct USP1 (I-785, GG670, 671AA)/UAF1 (I-677)-Flag) (O94782 whole entry G670A/G671A): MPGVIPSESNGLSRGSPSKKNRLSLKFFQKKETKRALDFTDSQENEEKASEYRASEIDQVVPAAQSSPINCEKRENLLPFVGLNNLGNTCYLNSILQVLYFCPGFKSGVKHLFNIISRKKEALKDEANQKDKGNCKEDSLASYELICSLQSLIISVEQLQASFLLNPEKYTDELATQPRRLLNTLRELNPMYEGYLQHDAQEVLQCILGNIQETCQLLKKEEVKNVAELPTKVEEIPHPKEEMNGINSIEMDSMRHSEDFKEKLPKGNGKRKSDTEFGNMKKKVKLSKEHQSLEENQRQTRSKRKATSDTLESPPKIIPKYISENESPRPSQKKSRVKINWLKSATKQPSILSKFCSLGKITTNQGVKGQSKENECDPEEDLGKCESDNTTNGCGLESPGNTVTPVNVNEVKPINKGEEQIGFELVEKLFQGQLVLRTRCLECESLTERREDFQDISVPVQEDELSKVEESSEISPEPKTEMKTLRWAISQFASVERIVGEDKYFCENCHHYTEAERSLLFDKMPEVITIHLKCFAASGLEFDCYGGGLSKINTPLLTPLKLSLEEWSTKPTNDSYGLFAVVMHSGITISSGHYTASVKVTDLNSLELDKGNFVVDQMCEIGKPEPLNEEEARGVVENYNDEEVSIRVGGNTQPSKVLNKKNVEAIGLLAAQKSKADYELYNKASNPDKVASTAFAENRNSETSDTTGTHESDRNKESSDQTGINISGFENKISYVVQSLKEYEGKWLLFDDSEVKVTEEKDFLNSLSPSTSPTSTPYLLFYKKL
Sequence of USP1 (construct USP1 (I-785, GG670, 671AA)/UAF1 (I-677)-Flag) (Q8TAF3 whole entry partner): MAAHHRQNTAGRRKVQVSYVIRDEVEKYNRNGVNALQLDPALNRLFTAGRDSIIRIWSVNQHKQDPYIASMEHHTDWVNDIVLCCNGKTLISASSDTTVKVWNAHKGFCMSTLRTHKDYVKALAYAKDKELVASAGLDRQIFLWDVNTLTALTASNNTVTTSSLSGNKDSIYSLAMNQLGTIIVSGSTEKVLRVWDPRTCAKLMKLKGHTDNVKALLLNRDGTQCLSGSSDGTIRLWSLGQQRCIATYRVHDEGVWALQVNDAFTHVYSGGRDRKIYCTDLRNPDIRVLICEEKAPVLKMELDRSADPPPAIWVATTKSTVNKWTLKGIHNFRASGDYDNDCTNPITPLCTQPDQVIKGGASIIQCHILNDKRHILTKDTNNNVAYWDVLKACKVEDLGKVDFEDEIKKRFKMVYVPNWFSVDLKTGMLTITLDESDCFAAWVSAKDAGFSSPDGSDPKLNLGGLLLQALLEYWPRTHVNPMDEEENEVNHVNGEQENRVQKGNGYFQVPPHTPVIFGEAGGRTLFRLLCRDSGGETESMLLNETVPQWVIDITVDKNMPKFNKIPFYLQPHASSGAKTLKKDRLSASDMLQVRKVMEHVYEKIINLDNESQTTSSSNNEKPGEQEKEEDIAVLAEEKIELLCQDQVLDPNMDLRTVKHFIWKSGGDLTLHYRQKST

Consider `CC(C)c1ccccc1-c1ncc2[nH]c(=O)n(Cc3ccc(-c4cccc(CCN(C)C)c4)cc3)c2n1` [Compound I-248, 9-((3′-(2-(dimethylamino)ethyl)-[1,1′-biphenyl]-4-yl)methyl)-2-(2-isopropylphenyl)-7,9-dihydro-8H-purin-8-one], for which the half-inhibitory concentration (IC50) was in the range of 0.2 to 2 µM.

`CC(C)c1ccccc1-c1ncc2[nH]c(=O)n([C@H](C)c3ccc(-c4nccn4C)cc3)c2n1` [Compound I-309, (R)-2-(2-isopropylphenyl)-9-(1-(4-(1-methyl-1H-imidazol-2-yl)phenyl)ethyl)-7,9-dihydro-8H-purin-8-one] showed an IC50 below 0.05 µM.

The compound `CC(C)c1ccccc1-c1ncc2c(n1)n(Cc1ccc(-c3cncn3C)cc1)c(=O)n2C` [Compound I-264, 2-(2-isopropylphenyl)-7-methyl-9-(4-(1-methyl-1H-imidazol-5-yl)benzyl)-7,9-dihydro-8H-purin-8-one] displayed an IC50 of 0.05 to 0.2 µM.

Regarding `Cc1cn(C)c(-c2ccc(Cn3c(=O)n(C)c4cnc(-c5ccccc5C(C)C)nc43)cc2)n1` [Compound I-258, 9-(4-(1,4-dimethyl-1H-imidazol-2-yl)benzyl)-2-(2-isopropylphenyl)-7-methyl-7,9-dihydro-8H-purin-8-one], the IC50 was below 0.05 µM.

Regarding `CC(C)c1ccccc1-c1ncc2c(n1)n(Cc1ccc(-n3cccn3)cc1)c(=O)n2CCN(C)C` [Compound I-107, 9-(4-(1H-pyrazol-1-yl)benzyl)-7-(2-(dimethylamino)ethyl)-2-(2-isopropylphenyl)-7,9-dihydro-8H-purin-8-one], the IC50 was in the range of 0.2 to 2 µM.

Compound `CC(C)c1ccccc1-c1ncc2[nH]c(=O)n([C@H]3CC[C@@H]3c3ccc(-n4cccn4)cc3)c2n1` [Compound I-164, 9-((1S,2R)-2-(4-(1H-pyrazol-1-yl)phenyl)cyclobutyl)-2-(2-isopropylphenyl)-7,9-dihydro-8H-purin-8-one] displayed a half-inhibitory concentration (IC50) of 0.2 to 2 µM.

In turn, `CC(C)c1ccccc1-c1ncc2c(n1)n(Cc1ccc(OCC3CCCN(C)C3)cc1)c(=O)n2C` (stereo not drawn) [Compound I-230, 2-(2-isopropylphenyl)-7-methyl-9-(4-((1-methylpiperidin-3-yl)methoxy)benzyl)-7,9-dihydro-8H-purin-8-one] displayed an IC50 of 0.2 to 2 µM.

In turn, `Cc1scnc1-c1ccc(Cn2c(=O)n(C)c3cnc(-c4ccccc4C(C)C)nc32)cc1` [Compound I-303, 2-(2-isopropylphenyl)-7-methyl-9-(4-(5-methylthiazol-4-yl)benzyl)-7,9-dihydro-8H-purin-8-one] had an IC50 below 0.05 µM.

In the case of `CC(C)c1ccccc1-c1ncc2c(n1)n(Cc1cccc(OCC3CCOC3)c1)c(=O)n2C` (stereo not drawn) [Compound I-240, 2-(2-isopropylphenyl)-7-methyl-9-(3-((tetrahydrofuran-3-yl)methoxy)benzyl)-7,9-dihydro-8H-purin-8-one], the concentration for half-maximal inhibition (IC50) lay in the range of 0.2 to 2 µM.

Turning to `CC(C)c1c(F)cccc1-c1ncc2[nH]c(=O)n(Cc3ccc(-c4nccn4C)cc3)c2n1` [Compound I-172, 2-(3-fluoro-2-isopropylphenyl)-9-(4-(1-methyl-1H-imidazol-2-yl)benzyl)-7,9-dihydro-8H-purin-8-one], the IC50 is below 0.05 µM.

With `CC(C)c1ccccc1-c1ncc2[nH]c(=O)n(Cc3ccc(-c4cnccn4)cc3)c2n1` [Compound I-247, 2-(2-isopropylphenyl)-9-(4-(pyrazin-2-yl)benzyl)-7,9-dihydro-8H-purin-8-one], the IC50 lay in the range of 0.05 to 0.2 µM.

Take `Cc1cc(C(F)(F)F)n(-c2ccc(Cn3c(=O)[nH]c4cnc(-c5cccnc5OCC(F)(F)F)nc43)cc2)n1` [Compound I-41, 9-(4-(3-methyl-5-(trifluoromethyl)-1H-pyrazol-1-yl)benzyl)-2-(2-(2,2,2-trifluoroethoxy)pyridin-3-yl)-7,9-dihydro-8H-purin-8-one]: the 50% inhibitory concentration (IC50) was 0.05 to 0.2 µM.

`CC(C)c1ccccc1-c1ncc2c(n1)n(Cc1ccc(OCc3ccccn3)cc1)c(=O)n2C` [Compound I-231, 2-(2-isopropylphenyl)-7-methyl-9-(4-(pyridin-2-ylmethoxy)benzyl)-7,9-dihydro-8H-purin-8-one]: the half-maximal inhibitory concentration (IC50) was below 0.05 µM.

Take `Cn1cc(C(F)(F)F)nc1-c1ccc(Cn2c(=O)[nH]c3cnc(-c4cccnc4OC4CCC4)nc32)cc1` [Compound I-419, 2-(2-cyclobutoxypyridin-3-yl)-9-(4-(1-methyl-4-(trifluoromethyl)-1H-imidazol-2-yl)benzyl)-7,9-dihydro-8H-purin-8-one]: the IC50 was below 0.05 µM.

Consider `CC(C)c1ccccc1-c1ncc2c(n1)n(Cc1ccc(-c3ncn(C)c3CO)cc1)c(=O)n2C` [Compound I-288, 9-(4-(5-(hydroxymethyl)-1-methyl-1H-imidazol-4-yl)benzyl)-2-(2-isopropylphenyl)-7-methyl-7,9-dihydro-8H-purin-8-one], for which the IC50 is 0.2 to 2 µM.

As for `Cc1cc(C)n([C@H]2CC[C@H](Cn3c(=O)[nH]c4cnc(-c5ccccc5C(C)C)nc43)CC2)n1` [Compound I-213, 9-(((1r,4r)-4-(3,5-dimethyl-1H-pyrazol-1-yl)cyclohexyl)methyl)-2-(2-isopropylphenyl)-7,9-dihydro-8H-purin-8-one], the IC50 was 0.2 to 2 µM.

In turn, `Cn1cc(C(F)(F)F)nc1-c1ccc(Cn2c(=O)n(C)c3cnc(-c4cccnc4N4CC(F)(F)C4)nc32)cc1` [Compound I-135, 2-(2-(3,3-difluoroazetidin-1-yl)pyridin-3-yl)-7-methyl-9-(4-(1-methyl-4-(trifluoromethyl)-1H-imidazol-2-yl)benzyl)-7,9-dihydro-8H-purin-8-one] displayed a half-inhibitory concentration (IC50) of 0.05 to 0.2 µM.

Take `CC(=O)Nc1ccc(Cn2c(=O)[nH]c3cnc(-c4ccccc4C(C)C)nc32)cc1` [Compound I-218, N-(4-((2-(2-isopropylphenyl)-8-oxo-7,8-dihydro-9H-purin-9-yl)methyl)phenyl)acetamide]: the IC50 fell in the range of 0.2 to 2 µM.

`CC(C)c1ncccc1-c1ncc2[nH]c(=O)n(Cc3ccc(-c4nc(C(F)(F)F)cn4C4COC4)cc3)c2n1` [Compound I-32, 2-(2-isopropylpyridin-3-yl)-9-(4-(1-(oxetan-3-yl)-4-(trifluoromethyl)-1H-imidazol-2-yl)benzyl)-7,9-dihydro-8H-purin-8-one] returned an IC50 of 0.05 to 0.2 µM.

For `CN1CCC(c2ccn(-c3ccc(Cn4c(=O)[nH]c5cnc(-c6cccnc6OCC(F)(F)F)nc54)cc3)n2)CC1` [Compound I-443, 9-(4-(3-(1-methylpiperidin-4-yl)-1H-pyrazol-1-yl)benzyl)-2-(2-(2,2,2-trifluoroethoxy)pyridin-3-yl)-7,9-dihydro-8H-purin-8-one], the IC50 fell in the range of 0.2 to 2 µM.

`CCOCCNc1ncccc1-c1ncc2[nH]c(=O)n(Cc3ccc(-c4nc(C(F)(F)F)cn4C)cc3)c2n1` [Compound I-315, 2-(2-((2-ethoxyethyl)amino)pyridin-3-yl)-9-(4-(1-methyl-4-(trifluoromethyl)-1H-imidazol-2-yl)benzyl)-7,9-dihydro-8H-purin-8-one] yielded a concentration for half-maximal inhibition (IC50) below 0.05 µM.

As to `Cc1nc(-c2ccc(Cn3c(=O)n(C)c4cnc(-c5ccccc5C(C)C)nc43)cc2)cn1C` [Compound I-276, 9-(4-(1,2-dimethyl-1H-imidazol-4-yl)benzyl)-2-(2-isopropylphenyl)-7-methyl-7,9-dihydro-8H-purin-8-one], the half-maximal inhibitory concentration (IC50) is below 0.05 µM.

The compound `CC(C)c1ccccc1-c1ncc2[nH]c(=O)n([C@@H](C)c3ccc(-c4nc(C(F)(F)F)cn4C)cc3)c2n1` [Compound I-215, (S)-2-(2-isopropylphenyl)-9-(1-(4-(1-methyl-4-(trifluoromethyl)-1H-imidazol-2-yl)phenyl)ethyl)-7,9-dihydro-8H-purin-8-one] displayed an IC50 below 0.05 µM.

Consider `Cc1cc(C)n([C@H]2CC[C@@H](Cn3c(=O)[nH]c4cnc(-c5ccccc5C(C)C)nc43)CC2)n1` [Compound I-212, 9-(((1s,4s)-4-(3,5-dimethyl-1H-pyrazol-1-yl)cyclohexyl)methyl)-2-(2-isopropylphenyl)-7,9-dihydro-8H-purin-8-one], for which the IC50 was below 0.05 µM.

For `CC(C)c1ncccc1-c1ncc2c(n1)n(Cc1ccc(-c3nc(C(F)(F)F)cn3C)cc1)c(=O)n2C1CCOCC1` [Compound I-122, 2-(2-isopropylpyridin-3-yl)-9-(4-(1-methyl-4-(trifluoromethyl)-1H-imidazol-2-yl)benzyl)-7-(tetrahydro-2H-pyran-4-yl)-7,9-dihydro-8H-purin-8-one], the IC50 was in the range of 0.2 to 2 µM.

`CCCN(C)C(=O)c1ccc(Cn2c(=O)[nH]c3cnc(-c4ccccc4C(C)C)nc32)cc1` [Compound I-374, 4-((2-(2-isopropylphenyl)-8-oxo-7,8-dihydro-9H-purin-9-yl)methyl)-N-methyl-N-propylbenzamide]: the IC50 was below 0.05 µM.

`CC(C)c1ccccc1-c1ncc2[nH]c(=O)n(Cc3ccc(-c4ncc(F)n4C)cc3)c2n1` [Compound I-176, 9-(4-(5-fluoro-1-methyl-1H-imidazol-2-yl)benzyl)-2-(2-isopropylphenyl)-7,9-dihydro-8H-purin-8-one] returned an IC50 below 0.05 µM.

Consider `COCCn1ccnc1-c1ccc(Cn2c(=O)n(C)c3cnc(-c4ccccc4C(C)C)nc32)cc1` [Compound I-498, 2-(2-isopropylphenyl)-9-(4-(1-(2-methoxyethyl)-1H-imidazol-2-yl)benzyl)-7-methyl-7,9-dihydro-8H-purin-8-one], for which the half-maximal inhibitory concentration (IC50) was below 0.05 µM.

Compound `CC(C)c1ccccc1-c1ncc2c(n1)n(Cc1ccc(-c3ncn(C)n3)cc1)c(=O)n2C` [Compound I-272, 2-(2-isopropylphenyl)-7-methyl-9-(4-(1-methyl-1H-1,2,4-triazol-3-yl)benzyl)-7,9-dihydro-8H-purin-8-one] had an IC50 of 0.05 to 0.2 µM.

Compound `CC(C)c1ncccc1-c1ncc2c(n1)n(Cc1ccc(-c3nc(C(F)(F)F)cn3C)cc1)c(=O)n2C1COC1` [Compound I-119, 2-(2-isopropylpyridin-3-yl)-9-(4-(1-methyl-4-(trifluoromethyl)-1H-imidazol-2-yl)benzyl)-7-(oxetan-3-yl)-7,9-dihydro-8H-purin-8-one] showed an IC50 of 0.05 to 0.2 µM.
